The record followed here is patent US11685734B2, “ATM kinase inhibitors and compositions and methods of use thereof” (CHDI Foundation, Inc., priority 2019, dated 2023).

Structures are written as SMILES.

Assay [1] has as its target Recombinant, full length human FLAG-tagged ATM (Homo sapiens (Human), UniProt Q13315). Kind of assay: ATM ELISA for p53 S15 phosphorylation. Type of assay: biochemical. The following applies: 0.75 nM ATM, 25 nM p53, 10 μM ATP, 30 min at 20° C.; read-out: ATM BIO IC50. The essentials: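 ELISA of p53 S15 phosphorylation by 0.75 nM full-length FLAG-ATM, with 25 nM myc-p53 and 10 μM ATP in HEPES pH 7.5 with Mg/Mn, 30 min at 20° C. Reactions were EDTA-stopped, captured on anti-myc and detected with anti-pS15/HRP-TMB at 450 nm.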
In general terms: ELISA stands for enzyme-linked immunosorbent assay.

Assay [2] has as its target cellular ATM activity (Homo sapiens (Human), UniProt Q13315). Kind of assay: Inhibition of cellular ATM activity: etoposide-stimulated KAP1 phosphorylation in U20S cells. The following applies: 100 μM etoposide, 60 min, read-out: ATM CELL IC50. It is filed as cell-based.

Chain of cellular ATM activity (Q13315 whole entry): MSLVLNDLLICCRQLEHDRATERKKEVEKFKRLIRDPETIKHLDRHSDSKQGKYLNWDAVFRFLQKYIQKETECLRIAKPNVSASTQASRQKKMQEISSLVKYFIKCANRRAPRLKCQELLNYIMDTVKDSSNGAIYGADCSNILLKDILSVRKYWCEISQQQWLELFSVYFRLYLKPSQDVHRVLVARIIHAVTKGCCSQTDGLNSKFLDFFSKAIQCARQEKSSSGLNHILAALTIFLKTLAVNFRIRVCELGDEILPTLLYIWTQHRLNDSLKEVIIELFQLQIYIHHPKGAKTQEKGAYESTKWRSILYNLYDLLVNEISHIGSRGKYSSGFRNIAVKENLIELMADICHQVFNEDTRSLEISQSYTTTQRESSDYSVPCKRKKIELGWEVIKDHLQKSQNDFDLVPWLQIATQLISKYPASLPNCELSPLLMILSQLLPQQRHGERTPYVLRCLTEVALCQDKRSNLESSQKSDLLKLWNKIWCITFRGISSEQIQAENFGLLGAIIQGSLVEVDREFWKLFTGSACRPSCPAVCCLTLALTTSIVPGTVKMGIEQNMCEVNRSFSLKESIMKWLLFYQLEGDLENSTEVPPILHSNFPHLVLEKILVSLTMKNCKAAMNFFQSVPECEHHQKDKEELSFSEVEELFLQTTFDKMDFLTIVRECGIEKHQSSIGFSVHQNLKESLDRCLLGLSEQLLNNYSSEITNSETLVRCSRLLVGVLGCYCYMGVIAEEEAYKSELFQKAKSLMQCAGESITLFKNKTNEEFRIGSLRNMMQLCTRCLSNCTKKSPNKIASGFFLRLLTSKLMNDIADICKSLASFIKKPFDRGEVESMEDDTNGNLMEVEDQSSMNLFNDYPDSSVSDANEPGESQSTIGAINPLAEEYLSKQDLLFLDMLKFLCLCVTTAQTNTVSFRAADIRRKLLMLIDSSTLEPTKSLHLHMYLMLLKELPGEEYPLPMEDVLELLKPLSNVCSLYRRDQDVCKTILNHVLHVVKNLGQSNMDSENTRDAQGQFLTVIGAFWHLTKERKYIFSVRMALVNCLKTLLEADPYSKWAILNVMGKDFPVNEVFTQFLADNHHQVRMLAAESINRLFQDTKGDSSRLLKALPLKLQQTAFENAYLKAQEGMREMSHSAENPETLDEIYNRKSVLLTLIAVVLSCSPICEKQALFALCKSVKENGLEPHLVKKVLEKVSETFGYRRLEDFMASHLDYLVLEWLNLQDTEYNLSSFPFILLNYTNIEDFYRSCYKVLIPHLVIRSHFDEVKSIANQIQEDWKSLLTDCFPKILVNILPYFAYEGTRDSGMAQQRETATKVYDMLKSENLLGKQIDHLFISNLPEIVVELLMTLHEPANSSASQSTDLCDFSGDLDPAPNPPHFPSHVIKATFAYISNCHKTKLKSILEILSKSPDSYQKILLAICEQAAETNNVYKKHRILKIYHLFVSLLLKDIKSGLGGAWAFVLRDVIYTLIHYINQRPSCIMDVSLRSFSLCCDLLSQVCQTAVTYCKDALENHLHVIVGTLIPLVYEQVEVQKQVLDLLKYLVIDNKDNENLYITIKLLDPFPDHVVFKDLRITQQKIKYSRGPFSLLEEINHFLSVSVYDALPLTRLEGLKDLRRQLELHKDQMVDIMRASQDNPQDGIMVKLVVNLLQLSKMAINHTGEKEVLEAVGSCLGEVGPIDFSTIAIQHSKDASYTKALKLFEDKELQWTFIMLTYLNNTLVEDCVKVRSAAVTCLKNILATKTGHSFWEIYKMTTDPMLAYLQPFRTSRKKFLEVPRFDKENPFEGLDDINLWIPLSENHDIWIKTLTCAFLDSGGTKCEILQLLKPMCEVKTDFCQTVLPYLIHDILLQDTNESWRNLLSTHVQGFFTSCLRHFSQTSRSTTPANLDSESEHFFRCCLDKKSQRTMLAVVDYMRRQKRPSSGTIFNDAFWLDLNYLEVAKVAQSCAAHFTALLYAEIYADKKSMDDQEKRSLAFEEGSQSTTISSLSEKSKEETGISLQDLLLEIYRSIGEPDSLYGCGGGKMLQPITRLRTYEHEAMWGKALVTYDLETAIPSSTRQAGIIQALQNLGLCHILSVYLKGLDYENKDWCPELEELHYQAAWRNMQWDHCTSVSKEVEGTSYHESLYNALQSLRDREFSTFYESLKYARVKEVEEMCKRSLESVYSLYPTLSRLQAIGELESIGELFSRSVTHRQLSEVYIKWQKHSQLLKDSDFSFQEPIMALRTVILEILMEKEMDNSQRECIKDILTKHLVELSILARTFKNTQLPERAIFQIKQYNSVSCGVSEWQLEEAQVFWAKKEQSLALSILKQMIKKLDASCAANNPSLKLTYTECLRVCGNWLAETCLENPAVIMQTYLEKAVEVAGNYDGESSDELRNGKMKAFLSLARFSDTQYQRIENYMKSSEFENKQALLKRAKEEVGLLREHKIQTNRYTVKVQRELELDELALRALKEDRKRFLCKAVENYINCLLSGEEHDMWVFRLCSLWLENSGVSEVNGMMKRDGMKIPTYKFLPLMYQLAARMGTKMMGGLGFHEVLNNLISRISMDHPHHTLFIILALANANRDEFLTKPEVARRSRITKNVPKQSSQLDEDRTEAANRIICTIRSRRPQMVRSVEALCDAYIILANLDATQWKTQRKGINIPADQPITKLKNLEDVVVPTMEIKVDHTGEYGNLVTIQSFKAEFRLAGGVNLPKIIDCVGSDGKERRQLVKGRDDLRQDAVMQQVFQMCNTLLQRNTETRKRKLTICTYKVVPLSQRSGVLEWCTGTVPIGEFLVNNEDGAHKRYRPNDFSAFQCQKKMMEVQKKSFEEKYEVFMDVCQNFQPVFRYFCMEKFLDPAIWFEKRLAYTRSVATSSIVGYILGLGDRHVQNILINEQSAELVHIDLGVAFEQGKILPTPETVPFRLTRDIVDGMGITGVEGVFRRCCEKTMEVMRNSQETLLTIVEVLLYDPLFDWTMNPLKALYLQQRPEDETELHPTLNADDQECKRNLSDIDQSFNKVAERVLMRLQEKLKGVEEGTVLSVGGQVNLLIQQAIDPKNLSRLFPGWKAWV
Chain of Recombinant, full length human FLAG-tagged ATM (Q13315 whole entry): as above

Turning to `O=c1cc(N2CCOCC2)cc(N2CC(F)(F)C[C@@H]2Cc2ccccc2)[nH]1` [Example 102, (S)-6-(2-benzyl-4,4-difluoropyrrolidin-1-yl)-4-morpholinopyridin-2(1H)-one], the IC50 – broadly, the concentration needed to halve the response being measured – in assay [1] was 39.6 nM; in assay [2] it was 2220 nM.
For `O=c1cc(C2=CCOCC2)cc(N2CCCCC[C@@H]2Cc2ccccc2)[nH]1` [Example 167, (R)-6-(2-benzylazepan-1-yl)-4-(3,6-dihydro-2H-pyran-4-yl)pyridin-2(1H)-one] the same measures were 38.7 nM and 1540 nM.
Regarding `COc1ccccc1C[C@H]1[C@H](C)CCN1c1nc(N2CCOCC2)cc(=O)[nH]1` [Example 217], the IC50 in assay [1] came to 7.1 nM; in assay [2], 499 nM.
Consider `O=c1cc(N2CCOCC2)cc(N2CCCCC[C@@H]2Cc2ccccn2)[nH]1` [Example 33, (R)-4-morpholino-6-(2-(pyridin-2-ylmethyl)azepan-1-yl)pyridin-2(1H)-one], for which the IC50 in assay [1] came out at 92.4 nM; in assay [2], 1780 nM.
The corresponding values for `COc1ccccc1C[C@H]1CCCCCN1c1cc(N2CCOCC2)cc(=O)[nH]1` [Example 27, (R)-6-(2-(2-methoxybenzyl)azepan-1-yl)-4-morpholinopyridin-2(1H)-one] are 16.6 nM and 501 nM.
For `O=c1cc(N2CCOCC2)cc(N2CCCCC[C@@H]2Cc2cccc3c2OCC3)[nH]1` [Example 57, (R)-6-(2-((2,3-dihydrobenzofuran-7-yl)methyl)azepan-1-yl)-4-morpholinopyridin-2(1H)-one] the same measures were 18 nM and 292 nM.
The corresponding values for `O=c1cc(N2CCOCC2)cc(N2C[C@H]3CC[C@H](C3)[C@@H]2Cc2ccccc2)[nH]1` [Example 135] are 8.7 nM and 178 nM.
For the molecule `O=c1cc(N2CCOCC2)cc(N2C[C@@H]3CCC[C@@H]3[C@@H]2Cc2ccccc2)[nH]1` [Example 124], the IC50 was 3.3 nM in assay [1] and 248 nM in assay [2].
Take `O=c1cc(N2CCOCC2)cc(N2CCC[C@@H]2Cc2ccc(F)cc2)[nH]1` [Example 16, (R)-6-(2-(4-fluorobenzyl)pyrrolidin-1-yl)-4-morpholino pyridin-2(1H)-one]: the IC50 turned out to be 89.4 nM in assay [1] and 4160 nM in assay [2].
The corresponding values for `Cc1ccc(C[C@H]2CCCN2c2nc(N3CCOCC3)cc(=O)[nH]2)cc1` [Example 186] are 14.4 nM and 852 nM.
`O=c1cc(N2CCOCC2)nc(N2CC[C@H](O)[C@@H]2Cc2ccccc2)[nH]1` [Example 255, 2-((2S,3S)-2-benzyl-3-hydroxypyrrolidin-1-yl)-6-morpholinopyrimidin-4(3H)-one]: the IC50 was determined as 70.9 nM in assay [1] and 1260 nM in assay [2].
On to `CC(c1ccccc1)C1CCCN1c1nc(N2CCOCC2)cc(=O)[nH]1` (racemic) [Example 252, 6-morpholino-2-((R*)-2-((S*)-1-phenylethyl)pyrrolidin-1-yl)pyrimidin-4(3H)-one], for which the values for the IC50 in assay [1] and in assay [2] were 63.7 nM and 2290 nM, respectively.
